Experimental data taken from patent US20140051722A1, “TOPICAL LFA-1 ANTAGONISTS FOR USE IN LOCALIZED TREATMENT OF IMMUNE RELATED DISORDERS” (SARCODE BIOSCIENCE INC., priority 2008, published 2014).

Assays:
[1] = tested on: IL-1β; experiment: SEB-stimulated cytokine release from human PBMC: IL-1β; type: cell-based; details: SEB 1 ng/ml
[2] = tested on: IL-13; experiment: SEB-stimulated cytokine release from human PBMC: IL-13; type: cell-based; details: SEB 1 ng/ml
[3] = tested on: IL-3; experiment: SEB-stimulated cytokine release from human PBMC: IL-3; type: cell-based; details: SEB 1 ng/ml
[4] = tested on: IL-12p40; experiment: SEB-stimulated cytokine release from human PBMC: IL-12p40; type: cell-based; details: SEB 1 ng/ml
[5] = tested on: IL-5; experiment: SEB-stimulated cytokine release from human PBMC: IL-5; type: cell-based; details: SEB 1 ng/ml
[6] = tested on: MCP-1; experiment: SEB-stimulated cytokine release from human PBMC: MCP-1; type: cell-based; details: SEB 1 ng/ml
[7] = tested on: IP-10; experiment: SEB-stimulated cytokine release from human PBMC: IP-10; type: cell-based; details: SEB 1 ng/ml
[8] = tested on: IL-10; experiment: SEB-stimulated cytokine release from human PBMC: IL-10; type: cell-based; details: SEB 1 ng/ml
[9] = tested on: IL-6; experiment: SEB-stimulated cytokine release from human PBMC: IL-6; type: cell-based; details: SEB 1 ng/ml
[10] = tested on: IL-4; experiment: SEB-stimulated cytokine release from human PBMC: IL-4; type: cell-based; details: SEB 1 ng/ml
[11] = tested on: GM-CSF; experiment: SEB-stimulated cytokine release from human PBMC: GM-CSF; type: cell-based; details: SEB 1 ng/ml
[12] = tested on: IL-1α; experiment: SEB-stimulated cytokine release from human PBMC: IL-1α; type: cell-based; details: SEB 1 ng/ml
[13] = tested on: Plaque Psoriasis (PASI score); details: >90% occupancy of LFA-1; cited from earlier work

O=C(NC(Cc1cc(=O)[nH]c2ccccc12)C(=O)O)c1ccc(Cl)cc1 (stereo not shown) [Rebamipide]
EC50 [1]: > 1000 µM | EC50 [2]: > 1000 µM | EC50 [3]: > 1000 µM | EC50 [4]: > 1000 µM | EC50 [5]: > 1000 µM | EC50 [6]: > 1000 µM | EC50 [7]: > 1000 µM | EC50 [8]: > 1000 µM | EC50 [9]: > 1000 µM | EC50 [10]: > 1000 µM | EC50 [11]: > 1000 µM | EC50 [12]: > 1000 µM

efalizumab: anti-LFA-1 monoclonal antibody, clinical trial in plaque psoriasis
clinical improvement in PASI score [13]: greater than 50%
